The source of these data is ChEMBL document CHEMBL3352560, “Optimization of drug-like properties of nonsteroidal glucocorticoid mimetics and identification of a clinical candidate” (ACS Med Chem Lett, 2014).

Data set [1] in a line: physchem. Conditions: buffer, pH 6.8.
The conditions of data set [2]: buffer, pH 6.8, 24 h.
The nature of data set [3]: in vivo. Conditions: rat.

A word on the thermodynamic solubility: it is the concentration in solution at equilibrium with solid. The term half-life denotes the time in which the quantity being followed falls by half. High values mean slow decline, low ones rapid decline.

≈ marks a conversion by molar mass, not a printed value.

In data set [1], `CC(C)(CC(O)(Cc1cc2cc(N3CCOCC3)ncc2[nH]1)C(F)(F)F)c1cccc(S(C)(=O)=O)c1` (stereo not drawn) came in with a solubility (thermodynamic) at 24 h of 47 µg/mL (≈ 89.4 µM).
For the compound `CCS(=O)(=O)c1cc2cc(C[C@](O)(CC(C)(C)c3ccc(F)cc3C(N)=O)C(F)(F)F)[nH]c2cn1` [BI 653048], in data set [2], the Therm_solubility came to 5 µg/mL. Also, in data set [3], the half-life is 4.2 h.
